Source: patent US20240254138A1, “TRICYCLIC PYRIMIDINES AS CYCLIN-DEPENDENT KINASE 7 (CDK7) INHIBITORS” (JANSSEN PHARMACEUTICA NV, priority 2021, published 2024)
Like-named read-outs stand apart in the source and are kept apart here.

What was measured:
[1] = tested on: RNA Polymerase II Serine 5 phosphorylation in A549 cells overexpressing CDK7-mutant (C312S); test: Imaging-based cellular RNA PolII Ser5 phosphorylation assay in A549 cells overexpressing CDK7-mutant (C312S); assay type: cell-based, human; conditions: RNA PolII Ser5 phosphorylation, averaged over all measurements; for IC50: Homo sapiens, A549, A549 cells overexpressing CDK7-mutant (C312S), read-out: CDK7_A549 mutant hCDK7(pIC50) (converted); for CDK7_A549 mutant hCDK7(pIC50): A549 cells overexpressing CDK7-mutant (C312S)
Summary of the method: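 Readout was automated imaging of anti-phospho-Ser5 Rpb1 CTD immunofluorescence, with IC50 fitted to % control versus concentration. Cells were A549 stably overexpressing non-covalently targetable CDK7 C312S alongside wild-type, exposed to compound 3 h at 37 °C. DMSO and 10 μM reference compound served as controls.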

[2] = tested on: RNA Polymerase II Serine 5 phosphorylation (Rpb1 CTD, downstream substrate of CDK7) in A549 cells; test: Imaging-based cellular RNA PolII Ser5 phosphorylation assay in A549 cells; assay type: cell-based, human; conditions: wild-type CDK7, RNA PolII Ser5 phosphorylation, averaged over all measurements; for IC50: Homo sapiens, A549, A549 cells, read-out: CDK7_A549 Wild-type CDK7 (pIC50) (converted); for CDK7_A549 Wild-type CDK7 (pIC50): A549 cells
Summary of the method: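 IC50 derived by fitting % control (DMSO high, 10 μM reference low) against concentration, with Hill slope. Readout: high-content imaging of phospho-Ser5 Rpb1 CTD antibody staining in fixed, permeabilized A549 cells exposed to compound 3 h after 20 h culture in 1% FBS DMEM.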

[3] = molecular target: CDK7/cyclinH/MAT1 trimeric complex (Homo sapiens, UniProt P50613); test: In vitro CDK7 assay, potency of irreversible covalent inhibitors (kinact/KI), coupled PK/LDH ADP readout at 340 nm; conditions: for Ki / CDK7 (20 nM enz.) (kinact, s^−1) / CDK7 (20 nM enz.) (kinact/KI, M^−1*s^−1): 20 nM enzyme; for kinact: read-out: CDK7 (20 nM enz.) (kinact, s^−1), 20 nM enzyme
Sequence of CDK7/cyclinH/MAT1 trimeric complex (P50613 whole entry): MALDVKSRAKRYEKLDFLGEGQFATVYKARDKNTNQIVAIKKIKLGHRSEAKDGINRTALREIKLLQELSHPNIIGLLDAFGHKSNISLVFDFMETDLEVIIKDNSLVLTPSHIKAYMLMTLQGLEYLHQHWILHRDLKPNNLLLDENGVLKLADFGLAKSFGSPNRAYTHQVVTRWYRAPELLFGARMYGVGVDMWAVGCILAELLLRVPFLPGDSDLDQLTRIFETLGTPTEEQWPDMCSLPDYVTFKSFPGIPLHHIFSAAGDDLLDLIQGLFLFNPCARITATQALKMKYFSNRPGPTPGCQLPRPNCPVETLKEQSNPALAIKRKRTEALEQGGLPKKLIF
Sequence of CDK7/cyclinH/MAT1 trimeric complex (P51946 whole entry partner): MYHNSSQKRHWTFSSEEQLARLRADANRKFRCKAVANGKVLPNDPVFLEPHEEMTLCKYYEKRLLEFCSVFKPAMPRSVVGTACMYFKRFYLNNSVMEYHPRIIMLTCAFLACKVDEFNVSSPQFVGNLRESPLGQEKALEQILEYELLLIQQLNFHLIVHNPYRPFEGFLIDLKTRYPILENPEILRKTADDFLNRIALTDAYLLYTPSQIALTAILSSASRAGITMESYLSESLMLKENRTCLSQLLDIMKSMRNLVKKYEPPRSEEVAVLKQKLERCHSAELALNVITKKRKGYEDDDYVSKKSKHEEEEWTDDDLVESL
Sequence of CDK7/cyclinH/MAT1 trimeric complex (P51948 whole entry partner): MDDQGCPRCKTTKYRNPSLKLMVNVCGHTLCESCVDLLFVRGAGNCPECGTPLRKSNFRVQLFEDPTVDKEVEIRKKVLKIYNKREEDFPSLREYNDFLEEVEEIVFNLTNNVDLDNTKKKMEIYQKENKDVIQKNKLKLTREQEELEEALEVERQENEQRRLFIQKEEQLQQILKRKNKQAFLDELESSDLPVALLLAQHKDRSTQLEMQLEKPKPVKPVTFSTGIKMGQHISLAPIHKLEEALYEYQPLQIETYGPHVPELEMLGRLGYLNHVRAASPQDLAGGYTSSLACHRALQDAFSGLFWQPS

[4] = read-out: CDK7 (20 nM enz.) (kinact/KI, M^−1*s^−1), 20 nM enzyme

| Structure (SMILES) | IC50 [1] [nM] | IC50 [2] [nM] | Ki ([3]; CDK7 (20 nM enz.) (KI, μM)) [µM] | kinact [3] [s⁻¹] | kinact/KI [3, 4] [M⁻¹ s⁻¹] | CDK7_A549 mutant hCDK7(pIC50) [1] | CDK7_A549 Wild-type CDK7 (pIC50) [2] | CDK7 (20 nM enz.) (kinact, s^−1) [3] [s⁻¹] | CDK7 (20 nM enz.) (kinact/KI, M^−1*s^−1) [3] [M⁻¹ s⁻¹] | Ki ([3]; read-out: CDK7 (20 nM enz.) (KI)) [µM] | kinact/KI ([3]; read-out: CDK7 (20 nM enz.) (kobs/[I], M^−1*s^−1), 20 nM enzyme) [M⁻¹ s⁻¹] |
| --- | --- | --- | --- | --- | --- | --- | --- | --- | --- | --- | --- |
| CC#CC(=O)N1CCN(C2CN(c3cc4c(c(C)n3)OCc3c(N5CCOCC5)ccnc3N4)C2)CC1 [Compound 394] | > 10000 | 339 | 0.313 | 1.25e-05 | 39.9 | – | – | – | – | – | – |
| C=CC(=O)N1CC(N2CC[C@H](c3ccc4c(c3)Nc3nccc(N5CCOCC5)c3CO4)[C@@H](F)C2)C1 (single isomer, unassigned) [Compound 109] | – | – | – | – | – | <5 | 5.55 | 1.425e-05 | 5.9 | 2.42 | – |
| C=CC(=O)N1CC(N2CCC(c3cc4c(cn3)OCc3c(C5CCOCC5)ccnc3N4)CC2)C1 [Compound 130] | > 10000 | 97.7 | 0.11 | 7.73e-05 | 704 | – | – | – | – | – | – |
| CC#CC(=O)N1CC(N2CC(c3cc(C#N)c4c(c3)Nc3nccc(C5CCOCC5)c3[C@@H](C)O4)C2)C1 (single isomer, unassigned) [Compound 475] | 7590 | 204 | – | – | 351 | – | – | – | – | – | – |
| C=CC(=O)N1CCC(N2CC(c3cc4c(c(C5CC5)n3)OCc3c(N5CCOCC5)ccnc3N4)C2)CC1 [Compound 336] | 1320 | 49 | 0.0564 | – | – | – | – | 1.295e-05 | 229.663 | – | – |
| C=CC(=O)N1CC[C@H](N2CC(c3cc4c(c(C(F)(F)F)n3)O[C@H](C)c3c(N5CCOCC5)ccnc3N4)C2)C1 (single isomer, unassigned) [Compound 503] | – | – | – | – | – | 5.12 | 6.88 | – | 629.38 | – | – |
| CC#CC(=O)N1CC(N2CCC(c3cc4c(c(C)n3)O[C@H](C)c3c(N5CCOCC5)ccnc3N4)CC2)C1 (single isomer, unassigned) [Compound 345] | > 10000 | 87.1 | 0.131 | 3.88e-05 | 296 | – | – | – | – | – | – |
| C=CC(=O)N1CC[C@@H](N2CC(c3cc(C)c4c(c3)Nc3nccc(-c5cnn(C)c5)c3CO4)C2)C1 (single isomer, unassigned) [Compound 194] | > 10000 | 58.9 | 0.0892 | 4.72e-05 | 530 | – | – | – | – | – | – |
| C=CC(=O)N1CC[C@H](N2CC(c3cc4c(c(C5CC5)n3)OCc3c(N5CCOCC5)ccnc3N4)C2)C1 (single isomer, unassigned) [Compound 326] | 7760 | 89.1 | – | – | – | – | – | – | – | – | 939 |
| CC#CC(=O)N1CCC(n2ccc(-c3cc4c(c(C)n3)OCc3c(N5CCOCC5)ccnc3N4)cc2=O)CC1 [Compound 414] | > 10000 | 251 | 0.0611 | 4.36e-05 | 714 | – | – | – | – | – | – |
| Cc1nc(C2CCN([C@H]3CCN(C(=O)/C=C/C(=O)O)C3)CC2)cc2c1OCc1c(-c3cnn(C)c3)ccnc1N2 (single isomer, unassigned) [Compound 332] | > 10000 | 7590 | 4.85 | 2.19e-05 | 4.51 | – | – | – | – | – | – |
| C=CC(=O)N1CCC(N2CC(c3cc4c(c(C)n3)O[C@@H](C)c3c(C5CCOCC5)ccnc3N4)C2)CC1 (single isomer, unassigned) [Compound 468] | > 10000 | 2040 | 2.21 | 3.64e-05 | 16.5 | – | – | – | – | – | – |
| C=CC(=O)N1CC[C@H](N2CC(c3cc4c(c(C5CC5)n3)OCc3c(-c5cnn(C)c5)ccnc3N4)C2)C1 (single isomer, unassigned) [Compound 287] | > 10000 | 129 | 0.188 | 0.000117 | 622 | – | – | – | – | – | – |
| C=CC(=O)N1CC(N2CC(c3ccc4c(c3)Nc3nccc(C5CCOCC5)c3CO4)C2)C1 [Compound 167] | > 10000 | 105 | 0.0325 | 5.4e-05 | 1660 | – | – | – | – | – | – |
